From US20070107074A1, “Porcine Nuclear Transfer” (Garelag Pty Ltd., priority 1998, published 2007)

How the values were obtained:
[1] = tested on: porcine blastomere nuclei; assay: Metaphase arrest induced in porcine blastomere nuclei following treatment with nocodazole; format: cell-based
Description: Preferably, karyoplasts may be synchronized at the G1 state using a DNA synthesis inhibitor and/or use of a microtubule inhibitor which, on following removal of the inhibitor(s), results in synchronization of the karyoplast at the G1 state, or by means other than DNA inhibition, excluding serum starvation, for example cdk kinase inhibitors such as Butyrolactone I (Motlik et al (1998) Theriogeneology 49: 461-469). Examples of DNA synthesis inhibitors include: aphidicolin, hydroxyurea, cytosine arabinoside, 5-fluorouracil, n-ethylmalemide and etoposide. Any microtubule inhibitor may be used in this invention including nocodazole, colchecine or colcemid. Alternatively, a microtubule stabilizer such as, for example, taxol may be used. Karyoplasts may, for example, be synchronized at G1 by the use of a microtubule inhibitor such as nocodazole (to give a population of nuclei at the metaphase) followed by treatment with a DNA synthesis inhibitor such as aphidicolin in which the nuclei progress to an arrest at the G1 state. […] Karyoplasts may be synchronized in the Go state by nutrient deprivation, such as incubation in a low serum containing medium, as is known in the art, or by chemical treatment. Donor karyoplasts (such as cells) may be incubated in a standard culture medium with a DNA synthesis inhibitor and/or microtubule inhibitor for a time sufficient to synchronize the cells at the G1 state. This can be readily observed by microscopic observations. DNA synthesis inhibitors and/or microtubule inhibitors may be used, for example, in an amount of from about 0.01 μg/ml to about 50 μg/ml, such as about 1-5 μg/ml culture medium. Microtubule inhibitors fix the cells at the M phase. After removal of microtubule inhibitor from the cell media, which can conveniently be done by washing the cells, cells pass to the G1 phase after about 30 minutes to 6 hours in a uniform manner such that a plurality of cells in the G1 phase can be conveniently prepared. A DNA synthesis inhibitor synchronises cells at the G1 phase. Removal of a DNA synthesis inhibitor from cell media allows the cell cycle to proceed. Similarly donor karyoplasts may be synchronized in the G0 state as described above.

porcine morulae = assay: In vitro development of porcine morulae following NZ treatment; format: cell-based; conditions: 15 h
Description: In vitro culture of oocytes, embryos and nuclear transfer embryos was conducted in 25 μl droplets of Whitten's medium (Whitten W K, 1971, in G Raspe, ed Advances in the Biosciences, Pergamon Press: Oxford, pp 129-141) supplemented with 15 mg/ml bovine serum albumin (BSA) under paraffin oil in a plastic petrie dish under an atmosphere of 5% CO2, 5% O2 and 90% N2 in humidified air at […].

## COC(=O)Nc1nc2ccc(C(=O)c3cccs3)cc2[nH]1 [NZ, nocodazole]
[1]; 4 h exposure, NZ 1 μg/ml
  Blastomeres at M: (24%)
[1]; 4 h exposure, NZ 1 μg/ml, number at M/total
  Blastomeres at M: 14/58
[1]; 7 h exposure, NZ 1 μg/ml
  Blastomeres at M: (41%)
[1]; 7 h exposure, NZ 1 μg/ml, number at M/total
  Blastomeres at M: 54/133
[1]; 15 h exposure, NZ 0.5 μg/ml
  Blastomeres at M: (76%)
[1]; 15 h exposure, NZ 0.5 μg/ml, number at M/total
  Blastomeres at M: 101/133
[1]; 15 h exposure, NZ 1 μg/ml
  Blastomeres at M: (96%)
[1]; 15 h exposure, NZ 1 μg/ml, number at M/total
  Blastomeres at M: 257/267
Porcine morulae; NZ 0.5 μg/ml, 3 repeats
  Development to blastocyst: 70%
Porcine morulae; NZ 0.5 μg/ml, 3 repeats, number of blastocysts/total
  Development to blastocyst: 14/20
Porcine morulae; NZ 1 μg/ml, 4 repeats
  Development to blastocyst: 57%
Porcine morulae; NZ 1 μg/ml, 4 repeats, number of blastocysts/total
  Development to blastocyst: 17/30
